Experimental data from ChEMBL document CHEMBL1148974, “New eudesmane derivatives from Melampodium camphoratum from the Suriname rainforest” (J Nat Prod, 2004).
≈ marks a conversion by molar mass, not a printed value.

Test system: Plasmodium falciparum
Assay: Antimalarial activity as reduced heme degradation in Plasmodium falciparum infected human erythrocytes
Assay type: functional, organism-based

Compound	DC50 [µg/mL]
C=C1CCC[C@]2(C)CC[C@@H](C(C)C)[C@H](OC(=O)/C=C/c3ccc(OC)cc3)[C@@H]12	48 (≈ 125 µM)
C=C1CCC[C@]2(C)CC[C@@H](C(C)C)[C@H](OC(=O)/C=C/c3ccc(O)cc3)[C@@H]12	> 200
C=C1CCC[C@]2(C)CC[C@@H](C(C)C)[C@H](OC(=O)/C=C/c3ccc(OC(=O)CCCCCCCCCCCCCCCCC)cc3)[C@@H]12	110 (≈ 173 µM)
C=C1CCC[C@]2(C)CC[C@@H](C(C)C)[C@H](OC(=O)/C=C\c3ccc(OC(C)=O)cc3)[C@@H]12	> 200
C=C1CCC[C@]2(C)CC[C@@H](C(C)C)[C@H](OC(=O)/C=C/c3ccc(OC(=O)CCCCCCC/C=C\CCCCCC)cc3)[C@@H]12	52 (≈ 86 µM)
C=C1CCC[C@]2(C)CC[C@@H](C(C)C)[C@H](OC(=O)/C=C\c3ccc(O)cc3)[C@@H]12	> 200
C=C[C@H]1CN2CC[C@H]1C[C@H]2[C@H](O)c1ccnc2ccc(OC)cc12 [QUININE]	1.3 (≈ 4.01 µM)
C=C1CCC[C@]2(C)CC[C@@H](C(C)C)[C@H](OC(=O)/C=C/c3ccc(OC(=O)CCCCCCCCCCCCCCC)cc3)[C@@H]12	75 (≈ 124 µM)
